Data on 29 compounds can be found in patent US10544130B2, “Metallo-beta-lactamase inhibitors” (priority 2015, dated 2020).

Molecules are shown by their SMILES.

The data set relates to Pseudomonas aeruginosa PAO1 MB9798 (efflux+, IMP-1). Particulars: ratio MITC95 PA 9798/MITC95 PA 9799; imipenem at 2 μg/mL. The essentials: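 Isogenic PAO1 pair (efflux+ MB9798, efflux− MB9799, both IMP-1) tested by microbroth MIC with fixed imipenem and/or ceftazidime, usually at CLSI breakpoint, plus fixed class A/C inhibitor against AmpC. MBL inhibitor titrated; concentration restoring susceptibility recorded and fold difference between strains taken as efflux extent.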
For `Nc1nc2c(-c3ccc(S(=O)(=O)N[C@H]4CN[C@H](CO)C4)c(S(N)(=O)=O)c3-c3nnn[nH]3)cccc2[nH]1` [Example 172, 4-(2-amino-1H-benzo[d]imidazol-4-yl)-N^1-((3R,5S)-5-(hydroxymethyl)pyrrolidin-3-yl)-3-(1H-tetrazol-5-yl)benzene-1,2-disulfonamide], the Efflux ratio was found to be 0.50.
With `Nc1nc2c(-c3ccc(S(=O)(=O)NCC4(F)CNC4)c(S(N)(=O)=O)c3-c3nnn[nH]3)cccc2s1` [Example 46, 4-(2-amino-1,3-benzothiazol-4-yl)-N^1-[(3-fluoroazetidin-3-yl)methyl]-3-(1H-tetrazol-5-yl)benzene-1,2-disulfonamide] the figure was 0.50; with `CC1(CN)CN(S(=O)(=O)c2ccc(-c3cccc4sc(N)nc34)c(-c3nnn[nH]3)c2S(N)(=O)=O)C1.O=C(O)C(F)(F)F` [Example 101, (1-((4-(2-aminobenzo[d]thiazol-4-yl)-2-sulfamoyl-3-(1H-tetrazol-5-yl)phenyl)sulfonyl)-3-methylazetidin-3-yl)methanaminium 2,2,2-trifluoroacetate], 1.00; with `Nc1nc2c(-c3ccc(S(=O)(=O)N[C@@H]4CN[C@H](CO)C4)c(S(N)(=O)=O)c3-c3nnn[nH]3)cccc2[nH]1` [Example 175, 4-(2-amino-1H-benzo[d]imidazol-4-yl)-N^1 - ((3S,5S)-5-(hydroxymethyl)pyrrolidin-3-yl)-3-(1H-tetrazol-5-yl)benzene-1,2-disulfonamide], 0.50.
Under `Nc1ccc2cccc(-c3ccc(S(N)(=O)=O)c(S(N)(=O)=O)c3-c3nn[nH]n3)c2n1` [Example 2, 4-(2-aminoquinolin-8-yl)-3-(2H-tetrazol-5-yl)benzene-1,2-disulfonamide] stands 1.00; under `Nc1nc2c(-c3ccc(S(=O)(=O)N[C@@H]4CN[C@@H](CO)C4)c(S(N)(=O)=O)c3-c3nnn[nH]3)cccc2[nH]1` [Example 174, 4-(2-amino-1H-benzo[d]imidazol-4-yl)-N^1-((3S,5R)-5-(hydroxymethyl)pyrrolidin-3-yl)-3-(1H-tetrazol-5-yl)benzene-1,2-disulfonamide], 1.00; under `CN1CC(N(C)S(=O)(=O)c2ccc(-c3cccc4sc(N)nc34)c(-c3nnn[nH]3)c2S(N)(=O)=O)C1.O=C(O)C(F)(F)F` [Example 107, 3-(4-(2-aminobenzo[d]thiazol-4-yl)-N-methyl-2-sulfamoyl-3-(1H-tetrazol-5-yl)phenylsulfonamido)-1-methylazetidin-1-ium 2,2,2-trifluoroacetate], 4.00.
Under `CN(C)C1CCN(S(=O)(=O)c2ccc(-c3cccc4sc(N)nc34)c(-c3nnn[nH]3)c2S(N)(=O)=O)CC1` [Example 26, 3-(2-amino-1,3-benzothiazol-4-yl)-6-{[4-(dimethylamino)piperidin-1-yl]sulfonyl}-2-(1H-tetrazol-5-yl)benzenesulfonamide] stands 2.00; under `Nc1nc2c(-c3ccc(S(=O)(=O)N4CCOCC4)c(S(N)(=O)=O)c3-c3nnn[nH]3)cccc2s1` [Example 29, 3-(2-amino-1,3-benzothiazol-4-yl)-6-(morpholin-4-ylsulfonyl)-2-(1H-tetrazol-5-yl)benzenesulfonamide], 16.00; under `Nc1nc2c(-c3ccc(S(=O)(=O)N4CCC[C@H](N)C4)c(S(N)(=O)=O)c3-c3nnn[nH]3)cccc2s1` [Example 66, 3-(2-amino-1,3-benzothiazol-4-yl)-6-{[(3S)-3-aminopiperidin-1-yl]sulfonyl}-2-(1H-tetrazol-5-yl)benzenesulfonamide], 2.00.
Turning to `NS(=O)(=O)c1c(S(=O)(=O)N[C@@H]2CCNC2)ccc(-c2cccc3nc(O)[nH]c23)c1-c1nnn[nH]1` [Example 130, (R)-4-(2-hydroxy-1H-benzo[d]imidazol-7-yl)-N1-(pyrrolidin-3-yl)-3-(1H-tetrazol-5-yl)benzene-1,2-disulfonamide], the Efflux ratio was determined as 0.50.
Under `NC[C@H](CO)NS(=O)(=O)c1ccc(-c2cccnc2N)c(-c2nn[nH]n2)c1S(N)(=O)=O` [Example 215, (R)-N1-(1-amino-3-hydroxypropan-2-yl)-4-(2-aminopyridin-3-yl)-3-(2H-tetrazol-5-yl)benzene-1,2-disulfonamide] stands 1.00.
Consider `N[C@H](CO)CNS(=O)(=O)c1ccc(-c2cccc3[nH]cnc23)c(-c2nn[nH]n2)c1S(N)(=O)=O` [Example 296, (S)—N^1-(2-amino-3-hydroxypropyl)-4-(1H-benzo[d]imidazol-4-yl)-3-(2H-tetrazol-5-yl)benzene-1,2-disulfonamide], for which the Efflux ratio was 1.00.
Under `COCCNS(=O)(=O)c1ccc(-c2cccc3sc(N)nc23)c(-c2nnn[nH]2)c1S(N)(=O)=O` [Example 24, 4-(2-amino-1,3-benzothiazol-4-yl)-N^1-(2-methoxyethyl)-3-(1H-tetrazol-5-yl)benzene-1,2-disulfonamide] stands 4.00; under `Cc1ccc(-c2ccc(S(N)(=O)=O)c(S(N)(=O)=O)c2-c2nn[nH]n2)c2nc(N)sc12` [Example 6, 4-(2-amino-7-methylbenzo[d]thiazol-4-yl)-3-(2H-tetrazol-5-yl)benzene-1,2-disulfonamide], 1.00.
Take `Nc1nc2c(-c3ccc(S(=O)(=O)N[C@@H]4CNC[C@@H]4F)c(S(N)(=O)=O)c3-c3nnn[nH]3)cccc2s1` [Example 58, 4-(2-amino-1,3-benzothiazol-4-yl)-N1-[(3R,4S)-4-fluoropyrrolidin-3-yl]-3-(1H-tetrazol-5-yl)benzene-1,2-disulfonamide]: the Efflux ratio was found to be 1.00.
Under `Cn1c(N)nc2c(-c3ccc(S(N)(=O)=O)c(S(N)(=O)=O)c3-c3nn[nH]n3)cccc21` [Example 5, 4-(2-amino-1-methyl-1H-benzo[d]imidazol-4-yl)-3-(2H-tetrazol-5-yl)benzene-1,2-disulfonamide] stands 2.00; under `Nc1ncccc1-c1ccc(S(=O)(=O)NC[C@@H](N)CO)c(S(N)(=O)=O)c1-c1nn[nH]n1` [Example 214, (R)-N1-(2-amino-3-hydroxypropyl)-4-(2-aminopyridin-3-yl)-3-(2H-tetrazol-5-yl)benzene-1,2-disulfonamide], 8.00.
Under `NCC(CN)NS(=O)(=O)c1ccc(-c2cccc(-c3nc[nH]n3)c2)c(-c2nn[nH]n2)c1S(N)(=O)=O` [Example 227, N4-(1,3-diaminopropan-2-yl)-2-(2H-tetrazol-5-yl)-3′-(1H-1,2,4-triazol-3-yl)-[1,1′-biphenyl]-3,4-disulfonamide] stands 1.00; under `Nc1nc2cccc(-c3ccc(S(=O)(=O)N4CCNCC4)c(S(N)(=O)=O)c3-c3nn[nH]n3)c2[nH]1` [Example 157, 3-(2-amino-3H-benzo[d]imidazol-4-yl)-6-(piperazin-1-ylsulfonyl)-2-(2H-tetrazol-5-yl)benzenesulfonamide], 4.00.
Take `NCCNS(=O)(=O)c1ccc(-c2cc(F)cc3[nH]c(N)nc23)c(-c2nnn[nH]2)c1S(N)(=O)=O` [Example 180, 4-(2-amino-6-fluoro-1H-benzo[d]imidazol-4-yl)-N^1-(2-aminoethyl)-3-(1H-tetrazol-5-yl)benzene-1,2-disulfonamide]: the Efflux ratio is on record as 0.50.
Take `Nc1nc2c(-c3ccc(S(=O)(=O)NCC4(F)CNC4)c(S(N)(=O)=O)c3-c3nnn[nH]3)cccc2s1.O=CO` [Example 91, 3-(((4-(2-aminobenzo[d]thiazol-4-yl)-2-sulfamoyl-3-(1H-tetrazol-5-yl)phenyl)sulfonamido)methyl)-3-fluoroazetidin-1-ium formate]: the Efflux ratio is recorded as 1.00.
With `NCCNS(=O)(=O)c1ccc(-c2cccc(-c3n[nH]c(N)n3)c2)c(-c2nn[nH]n2)c1S(N)(=O)=O` [Example 228, 3′-(5-amino-1H-1,2,4-triazol-3-yl)-N4-(2-aminoethyl)-2-(2H-tetrazol-5-yl)-[1,1′-biphenyl]-3,4-disulfonamide] the figure was 1.00.
With `C[C@H](N)CNS(=O)(=O)c1ccc(-c2cccc3sc(N)nc23)c(-c2nnn[nH]2)c1S(N)(=O)=O.O=CO` [Example 127, (S)-4-(2-aminobenzo[d]thiazol-4-yl)-N1-(2-aminopropyl)-3-(1H-tetrazol-5-yl)benzene-1,2-disulfonamide, formate salt] the figure was 1.00; with `CN(C[C@@H]1CCCN1)S(=O)(=O)c1ccc(-c2cccc3sc(N)nc23)c(-c2nnn[nH]2)c1S(N)(=O)=O.O=CO` [Example 121, (S)-2-((4-(2-aminobenzo[d]thiazol-4-yl)-N-methyl-2-sulfamoyl-3-(1H-tetrazol-5-yl)phenylsulfonamido)methyl)pyrrolidin-1-ium formate], 4.00; with `NCC(CN)NS(=O)(=O)c1ccc(-c2cccnc2N)c(-c2nn[nH]n2)c1S(N)(=O)=O` [Example 210, 4-(2-aminopyridin-3-yl)-N1-(1,3-diaminopropan-2-yl)-3-(2H-tetrazol-5-yl)benzene-1,2-disulfonamide], 2.00.
Under `Nc1nc2c(-c3ccc(S(=O)(=O)NCCC(N)C(F)(F)F)c(S(N)(=O)=O)c3-c3nnn[nH]3)cccc2s1` (centres unmarked) [Example 49, 4-(2-amino-1,3-benzothiazol-4-yl)-N1-(3-amino-4,4,4-trifluorobutyl)-3-(1H-tetrazol-5-yl)benzene-1,2-disulfonamide] stands 8.00; under `Nc1nc2c(-c3ccc(S(=O)(=O)NC4CNC4)c(S(N)(=O)=O)c3-c3nn[nH]n3)cccc2[nH]1` [Example 252, 4-(2-amino-1H-benzo[d]imidazol-4-yl)-N1-(azetidin-3-yl)-3-(2H-tetrazol-5-yl)benzene-1,2-disulfonamide], 0.68.
With `CN(C1CNC1)S(=O)(=O)c1ccc(-c2cccc3sc(N)nc23)c(-c2nnn[nH]2)c1S(N)(=O)=O.O=C(O)C(F)(F)F` [Example 105, 3-(4-(2-aminobenzo[d]thiazol-4-yl)-N-methyl-2-sulfamoyl-3-(1H-tetrazol-5-yl)phenylsulfonamido) azetidin-1-ium 2,2,2-trifluoroacetate], the Efflux ratio amounted to 1.00.
